Measurements: paper PMC4836865 (Chemical Science, 2015)

Columns and labels:
Type in all cases: biochemical
MelBEc [1] = target: T1, MelBEc (Escherichia coli, UniProt P02921); assay: melibiose reversal of Trp to D2G FRET; conditions: solubilised in NDT-C11; displaces D2G
[2] = target: MelBSt (melibiose permease of Salmonella typhimurium) (Salmonella enterica, UniProt P30878); assay: melibiose reversal of Trp to D2G FRET; conditions: solubilised in DDM or NDT-C11; displaces D2G
MelBEc [3] = target: T1, MelBEc; assay: Trp to dansyl FRET, reversed by melibiose; conditions: solubilised in NDT-C11; fluorescent ligand displaced by melibiose

T1 sequence (P02921 2-473): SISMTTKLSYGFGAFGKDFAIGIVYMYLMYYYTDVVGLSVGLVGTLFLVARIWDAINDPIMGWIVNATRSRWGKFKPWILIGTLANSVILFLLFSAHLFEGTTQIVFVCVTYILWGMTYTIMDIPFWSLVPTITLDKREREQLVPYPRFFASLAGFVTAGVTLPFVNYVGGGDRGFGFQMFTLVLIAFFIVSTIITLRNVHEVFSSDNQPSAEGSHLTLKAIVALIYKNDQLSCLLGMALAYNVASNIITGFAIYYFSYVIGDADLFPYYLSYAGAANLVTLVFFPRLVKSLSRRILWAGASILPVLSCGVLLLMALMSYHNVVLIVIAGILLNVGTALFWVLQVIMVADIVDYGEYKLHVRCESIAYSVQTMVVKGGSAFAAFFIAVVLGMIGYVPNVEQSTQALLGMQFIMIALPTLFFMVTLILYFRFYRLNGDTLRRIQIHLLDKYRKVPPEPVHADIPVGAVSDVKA
Sequence of MelBSt (melibiose permease of Salmonella typhimurium) (P30878 whole entry): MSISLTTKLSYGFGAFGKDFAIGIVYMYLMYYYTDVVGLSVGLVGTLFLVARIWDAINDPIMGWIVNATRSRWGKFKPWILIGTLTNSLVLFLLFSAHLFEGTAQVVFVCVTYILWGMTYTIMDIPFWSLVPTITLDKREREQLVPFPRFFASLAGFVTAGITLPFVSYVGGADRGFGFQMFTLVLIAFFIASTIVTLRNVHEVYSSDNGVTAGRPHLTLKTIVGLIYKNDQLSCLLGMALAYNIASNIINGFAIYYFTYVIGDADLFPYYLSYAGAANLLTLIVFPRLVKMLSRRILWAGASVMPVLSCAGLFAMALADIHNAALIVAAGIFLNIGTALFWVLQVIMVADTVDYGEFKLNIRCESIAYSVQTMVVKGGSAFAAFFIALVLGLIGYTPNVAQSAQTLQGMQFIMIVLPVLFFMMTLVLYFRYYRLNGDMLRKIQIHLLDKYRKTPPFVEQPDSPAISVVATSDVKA

Structure (SMILES): OC[C@H]1O[C@H](OC[C@H]2OC(O)[C@H](O)[C@@H](O)[C@@H]2O)[C@H](O)[C@@H](O)[C@H]1O (stereo partly drawn) [melibiose]
- melibiose reversal of Trp to D2G FRET (MelBEc [1]): NDT-C11 is capable of maintaining the melibiose binding activity of both MelBSt and MelBEc
- melibiose reversal of Trp to D2G FRET [2]: MelBSt solubilized in DDM or NDT-C11 was subjected to melibiose reversal of Trp

Structure (SMILES): CN(C)c1cccc2c(S(=O)(=O)NCCS[C@@H]3O[C@H](CO)[C@H](O)[C@H](O)[C@H]3O)cccc12 [2′-(N-dansyl)aminoalkyl-1-thio-β-D-galactopyranoside]
- Trp to dansyl FRET, reversed by melibiose (MelBEc [3]): FRET response of the D^2G bound MelB to melibiose or water addition
